PubChem BioAssay (NCI)
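96-well plates; 48 h exposure; 5 concentrations. Endpoints by linear interpolation between flanking doses. Not reached: highest tested concentration assigned. TGI: total growth inhibition.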

Tests used:
Experiment in all cases: growth of human tumour cells (NCI), 48 h
K-562 leukemia = system: K-562 leukemia
SN12C renal = system: SN12C renal
OVCAR-5 ovarian = system: OVCAR-5 ovarian
MCF7 breast = system: MCF7 breast
ACHN renal = system: ACHN renal
SK-MEL-2 melanoma = system: SK-MEL-2 melanoma
OVCAR-4 ovarian = system: OVCAR-4 ovarian
CCRF-CEM leukemia = system: CCRF-CEM leukemia
RPMI-8226 leukemia = system: RPMI-8226 leukemia
A498 renal = system: A498 renal

SMILES | TGI (K-562 leukemia) | TGI (SN12C renal) | TGI (OVCAR-5 ovarian) | TGI (MCF7 breast) | TGI (ACHN renal) | TGI (SK-MEL-2 melanoma) | TGI (OVCAR-4 ovarian) | TGI (CCRF-CEM leukemia) | TGI (RPMI-8226 leukemia) | TGI (A498 renal)
O=C(CCN1CCCC1)c1ccc(Oc2ccc(F)cc2)cc1 | > 100 µM | > 100 µM | > 100 µM | 32.3 µM | > 100 µM | > 100 µM | > 100 µM | 46.7 µM |  | 
CC1=NNC(=O)C1C1C=C(c2c[nH]c3ccccc23)OC1=O (stereo unspecified) | > 100 µM | > 100 µM | > 100 µM |  | > 100 µM | > 100 µM |  | > 100 µM | > 100 µM | > 100 µM
CC(=O)OCC1=CC2CCC3C(C)(CCC[C@]3(C)COC(C)=O)C23CC[C@H]1C3 (stereo partly specified) | 73.3 µM | > 100 µM | > 100 µM |  | > 100 µM | > 100 µM | > 100 µM | 93.3 µM | 63.1 µM | > 100 µM
CCOc1nc2sc3c(c2c(=O)n1CCSSCCn1c(OCC)nc2sc4c(c2c1=O)CCCC4)CCCC3 | > 100 µM | > 100 µM | > 100 µM | > 100 µM | > 100 µM | > 100 µM | > 100 µM |  | > 100 µM | > 100 µM
CC(C)(C)NC(=S)N/N=C/c1ccccn1 |  | > 96.1 µM | > 100 µM |  | 27 µM | > 100 µM | > 100 µM |  | 3.83 µM | > 79.1 µM
CCOC(=O)c1ccn2c(c1)c(C#N)c1nc3ccccc3nc12 | > 100 µM | > 100 µM | > 100 µM |  | > 100 µM | > 100 µM | > 100 µM | 68.4 µM | > 100 µM | > 100 µM
COC(=O)C1=COC2OC3CC1C2C(C)O3 (stereo unspecified) |  | > 100 µM | > 100 µM | > 100 µM | > 100 µM | > 100 µM | > 100 µM | > 100 µM | > 100 µM | > 100 µM
CC(C)=CCOc1ccc(-c2coc3cc4c(c(O)c3c2=O)C=CC(C)(C)O4)cc1 | > 100 µM | > 100 µM | > 100 µM |  | > 100 µM |  | 80 µM | > 100 µM | > 100 µM | 98.7 µM
Oc1ccc(/C=N/c2nccs2)c(O)c1 |  |  | > 100 µM | > 100 µM | > 100 µM |  |  |  |  | 
Cc1ccc(O)c(C2=NNC(c3cccc(Cl)c3)C2)c1 (stereo unspecified) | > 100 µM | > 100 µM | > 100 µM | > 100 µM | > 100 µM | 94.1 µM | 94 µM | > 100 µM | 88.3 µM | 
O=c1[nH]c(=O)n(C2CC(O)C(COP(=O)(OCC(Cl)(Cl)Cl)OCC(Cl)(Cl)Cl)O2)cc1F (stereo unspecified) | > 100 µM | > 100 µM | > 100 µM | > 100 µM | > 100 µM | > 100 µM | > 100 µM | > 100 µM | > 100 µM | 
CC(C)CC1NC(=O)CCC(NC(=O)C(Cc2ccc(O)cc2)NC(=O)OCc2ccccc2)C(=O)NC(Cc2ccccc2)C(=O)NC(Cc2ccccc2)NC1=O (stereo unspecified) | > 100 µM | > 100 µM | > 100 µM | > 100 µM | > 100 µM | > 100 µM | > 100 µM | > 100 µM | > 100 µM | 
Cn1c(=O)[nH]c2c(c1=O)C(=O)CN2 | > 100 µM | > 100 µM | > 100 µM |  |  | > 100 µM | > 100 µM | > 100 µM | > 100 µM | 
COC(=O)C(=O)C(C(C)=O)C(=O)C(=O)Nc1ccc(C)cc1C (stereo unspecified) | > 100 µM | > 100 µM | > 100 µM |  | > 100 µM | > 100 µM | > 100 µM | > 100 µM | > 100 µM | > 100 µM
COc1cc(-c2ccccc2)cn2c1nc1ccccc12 | 67.1 µM | 46.2 µM | 31.7 µM | 35.4 µM | 49.2 µM | 44 µM |  | 70.7 µM | 62 µM | 
COC1(C)CNCC(C)(C)NC(=O)C(C)(OC)CNCC(C)(C)NC1=O (stereo unspecified) | > 100 µM | > 100 µM | > 100 µM |  | > 100 µM | > 100 µM | > 100 µM | > 100 µM | > 100 µM | > 100 µM
COC(=O)CNC(=O)CSc1nnc(COc2ccc(Cl)cc2)n1-c1ccccc1 | > 100 µM | 38.5 µM | > 100 µM | > 100 µM | 55 µM | 50.7 µM | > 100 µM | > 100 µM |  | > 100 µM
O=Cc1ccc(-c2ccc(S(=O)(=O)O)cc2)o1 | > 100 µM | > 100 µM | > 100 µM | > 100 µM | > 100 µM | > 100 µM |  |  | > 100 µM | > 100 µM
CCCCCC(/C=C/c1ncccc1OCCCCCC(=O)O)=N\NC1=NCCN1 | > 100 µM | > 100 µM | > 100 µM |  | > 100 µM | > 100 µM | > 100 µM | > 100 µM | > 100 µM | 
C[Si](C)(C)/C=C/CN1C(=O)CCC1=O | > 100 µM | > 100 µM | > 100 µM |  | > 100 µM | > 100 µM |  | > 100 µM | > 100 µM | > 100 µM
CC12CCC(=O)[C@@]1(C)CCCC2O (stereo partly specified) | > 100 µM | > 100 µM | > 100 µM | > 100 µM | > 100 µM | > 100 µM | > 100 µM | > 100 µM | > 100 µM | 
CC(=O)c1cccc(Nc2nc3ccccc3c3[nH]c4ccccc4c23)c1 | > 100 µM | > 100 µM | 96.3 µM | 4.22 µM | 40.5 µM | 24.2 µM |  | > 100 µM | 9.25 µM | 
CC(=O)OCC1OC(n2c(O)c(N=NC(N)=S)c3ccc([N+](=O)[O-])cc32)C(OC(C)=O)C1OC(C)=O (stereo unspecified) | > 100 µM | > 100 µM | > 100 µM |  | > 100 µM | 47.2 µM | 43.3 µM | 64.8 µM | > 100 µM | 
C/C(=C\CC/C=C(\C)CC/C=C(\C)CCC1SC1(C)C)CC/C=C(\C)CCC1OC1(C)C (stereo unspecified) | > 100 µM | > 100 µM |  |  | > 100 µM | > 100 µM | > 100 µM | > 100 µM | > 100 µM | > 100 µM
